One experiment concerns AChE. The note with it: Figure 2; cited from earlier work.
For a further experiment, the system named is E. coli AB-274. The experiment in a line: Antibacterial assay, disc diffusion method (inhibition zone and MIC). Format: cell-based. The note with it: for Inhibition Zone / zone of inhibition at 25 µg/disc: disc diffusion, 25 μg per disc, includes 5.6 mm disc diameter. The protocol:
(§1) The evaluation of in vitro antibacterial activity of synthesized compounds was performed against two bacterial strains, namely Gram +ve B. subtilis QB-928 and Gram −ve E. coli AB-274 using the disc diffusion method.
The antibacterial potential of all targeted compounds was evaluated using the disc diffusion method. A suspension of 100 μL containing 10^8 cfu/mL of bacteria was applied on nutrient agar media with the support of a sterilized loop. […] The standard penicillin (25 μg per disc) was utilized as a positive control for antibacterial assay. These discs were carefully placed on agar which had originally been […] with selected bacterial cells. The agar culture plates were stored at 4 °C for 1 h and then the bacterial culture plate was incubated at 27 °C for 24 h. […]
In general terms: A growth-free zone around the sample is the usual read-out of agar diffusion tests.

The next experiment deals with B. subtilis QB-928. The description is as above. Type of experiment: cell-based. The note with it: for Inhibition Zone: disc diffusion; for Inhibition Zone / zone of inhibition at 25 µg/disc: 25 μg per disc, includes 5.6 mm disc diameter; for zone of inhibition at 25 µg/disc: QB928, disc diffusion. The method, then:
as §1
The antibacterial potential of all targeted compounds was evaluated using the disc diffusion method. A suspension of 100 μL containing 10^8 cfu/mL of bacteria was applied on nutrient agar media with the support of a sterilized loop. The compound solution was infused into sterilized filter paper discs (5.6 mm in diameter) at a particular concentration (25 μg/100 μL) in chloroform. The standard penicillin (25 μg per disc) was utilized as a positive control for antibacterial assay. These discs were carefully placed on agar which had originally been […] with selected bacterial cells. The agar culture plates were stored at 4 °C for 1 h and then the bacterial culture plate was incubated at 27 °C for 24 h. The inhibition zone was determined in millimeters (including the 5.6 mm disc diameter) with a reference control.

Experiment [1] addresses acetylcholinesterase (AChE) (Homo sapiens, UniProt P22303). The experiment is described as follows: AChE inhibition assay (modified Ellman's method). The note with it: for inhibition at 500 µM: 0.5 mM; for IC50: Ellman's method. Format: biochemical. The method, then:
The inhibitory effects of all synthesized derivatives on AChE activities were measured using a modified Ellman’s method. This experimental study used DTNB (5,5′-dithio-bis(2-nitro-benzoic)acid) and AChI as the […]. The tested compounds (10 µL; […]) were mixed with AChE (50 µL; 38 U) solution and incubated for 10 min at 25 °C. DTNB (50 µL; 0.3 mM) was then added. The transfer of AChI (200 µL; 50 mM Tris/HCl buffer pH = 8) initiated the reaction. A spectrophotometer recorded the hydrolysis of AChI by the formation of yellow 5-thio-2-nitrobenzoate anions as a result of the reaction of DTNB with thiocholine at a wavelength of 412 nm. […] The given formula was used to calculate the (%) inhibition: Inhibition %=Control−Test/Control×100
IC50 values were calculated using data from GraphPad Prism 5 software.
In general terms: Ellman's reagent forms a yellow product with free thiols.

Where [2] appears, read: Escherichia coli, AB274, E. coli.
Setting [3] is: Escherichia coli, AB274, E. coli, read-out: MIC.
Where [4] appears, read: Bacillus subtilis, QB928, read-out: MIC.

Converted amounts (≈) assume the structure as drawn. Read-outs that look alike come from different tables or passages of the source.

For orientation: IC50 means the point on the concentration scale where inhibition reaches its midpoint. By MIC is commonly meant the least concentration at which growth counts as inhibited. As usually defined, the zone of inhibition is the size of the clear area around the sample on an inoculated plate. The inhibition is the change of the read-out against control, counted positive when it falls. Low values mean little suppression, high ones strong suppression.

Sequence of acetylcholinesterase (AChE) (P22303 32-614): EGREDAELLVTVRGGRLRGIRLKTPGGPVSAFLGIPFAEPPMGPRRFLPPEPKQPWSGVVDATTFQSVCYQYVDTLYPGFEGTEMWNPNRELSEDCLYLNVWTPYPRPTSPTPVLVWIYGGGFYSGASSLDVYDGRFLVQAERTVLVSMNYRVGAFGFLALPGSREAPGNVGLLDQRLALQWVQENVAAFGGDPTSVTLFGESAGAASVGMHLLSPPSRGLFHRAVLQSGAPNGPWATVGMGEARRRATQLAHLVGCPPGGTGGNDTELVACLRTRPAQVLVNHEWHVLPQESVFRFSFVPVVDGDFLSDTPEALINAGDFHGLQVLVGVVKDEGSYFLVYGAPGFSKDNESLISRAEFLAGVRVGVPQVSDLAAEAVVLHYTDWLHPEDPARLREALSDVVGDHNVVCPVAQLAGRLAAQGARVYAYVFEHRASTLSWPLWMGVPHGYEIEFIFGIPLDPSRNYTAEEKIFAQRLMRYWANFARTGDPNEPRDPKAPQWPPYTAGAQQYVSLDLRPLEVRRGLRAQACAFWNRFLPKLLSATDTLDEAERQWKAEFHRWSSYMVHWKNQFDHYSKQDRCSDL

On to `Cc1cc(C)cc(C[n+]2ccc(-c3cc4ccccc4o3)cc2)c1` [Compound 1a], for which, in the experiment with AChE, the IC50 is 4.1 ± 1.5 nM.

On to `O=C(NCCCNc1c2c(nc3cc(Cl)ccc13)CCCC2)c1cc2ccccc2o1` [Compound 1b], for which, in the experiment on AChE, the IC50 is 120 nM.

In the case of `COc1cccc2cc(C(=O)NCCCCNC(=O)c3cc4ccccc4o3)c(=O)oc12` [Compound 1c], in the experiment on AChE, the IC50 was 180 ± 50 nM.

`COc1cccc2cc(C(=O)NCCn3ccc(=O)c(OCc4ccccc4)c3C)oc12` [Compound 1d]: the IC50 in the experiment with AChE is 76000 nM.

With `O=C(CSc1nnc(-c2cc3cc(Br)ccc3o2)n1-c1ccccc1)Nc1ccccc1` [Compound 10a, 2-((5-(5-bromobenzofuran-2-yl)-4-phenyl-4H-1,2,4-triazol-3-yl)thio)-N-phenylacetamide], the MIC turned out to be 1.80 µg/mL (≈ 3.56 µM) with E. coli AB-274 (E. coli) and 1.8 ± 0.25 µg/mL (≈ 3.56 µM) in the experiment with E. coli AB-274 (Escherichia coli, AB274). The results for the “Inhibition Zone” value in the experiment on E. coli AB-274 (E. coli) and with B. subtilis QB-928 were 38 ± 1.50 mm and “no detectable results”, respectively. The zone of inhibition at 25 µg/disc in the experiment with E. coli AB-274 (setting [2]) was 38 mm. The same molecule returned an inhibition at 500 µM in experiment [1] of 65.8 ± 1.5%. The same molecule displayed an IC50 in experiment [1] of 880 ± 500 nM.

Turning to `Cc1ccc(NC(=O)CSc2nnc(-c3cc4cc(Br)ccc4o3)n2-c2ccccc2)cc1C` [Compound 10b, 2-((5-(5-Bromobenzofuran-2-yl)-4-phenyl-4H-1,2,4-triazol-3-yl)thio)-N-(3,4-dimethylphenyl)acetamide], the “Inhibition Zone” value with E. coli AB-274 (E. coli) is given as 11.5 ± 1.40 mm; in the experiment on B. subtilis QB-928 it was 42 ± 1.00 mm. Besides, the figures for the zone of inhibition at 25 µg/disc in the experiment with E. coli AB-274 (setting [2]) and in the experiment with B. subtilis QB-928 (Bacillus subtilis) were 11.5 mm and 42 mm, respectively. The MIC turned out to be 3.8 ± 2.1 µg/mL (≈ 7.12 µM) in the experiment on E. coli AB-274 (setting [3]), 1.25 µg/mL (≈ 2.34 µM) against B. subtilis QB-928 and 1.25 ± 0.6 µg/mL (≈ 2.34 µM) in the experiment with B. subtilis QB-928 (setting [4]). The molecule also showed an inhibition at 500 µM in experiment [1] of 61.7 ± 1.5%. This molecule gave an IC50 in experiment [1] of 1500 ± 1000 nM.

As to `O=C(CSc1nnc(-c2cc3cc(Br)ccc3o2)n1-c1ccccc1)Nc1ccc([N+](=O)[O-])cc1` [Compound 10c, 2-((5-(5-Bromobenzofuran-2-yl)-4-phenyl-4H-1,2,4-triazol-3-yl)thio)-N-(4-nitrophenyl)acetamide], the “Inhibition Zone” value is given as 28 ± 0.00 mm in the experiment on E. coli AB-274 (E. coli) and “no detectable results” in the experiment on B. subtilis QB-928. Further, in the experiment with E. coli AB-274 (setting [2]), the zone of inhibition at 25 µg/disc was found to be 28 mm. The MIC in the experiment on E. coli AB-274 (setting [3]) turned out to be 2.5 ± 0.7 µg/mL (≈ 4.54 µM). The molecule further came in with an inhibition at 500 µM in experiment [1] of 55.9 ± 1.25%. The same molecule had an IC50 in experiment [1] of 2280 ± 1750 nM.

With `COc1ccc(OC)c(NC(=O)CSc2nnc(-c3cc4cc(Br)ccc4o3)n2-c2ccc(Cl)c(Cl)c2)c1` [Compound 10d, 2-((5-(5-Bromobenzofuran-2-yl)-4-(3,4-dichlorophenyl)-4H-1,2,4-triazol-3-yl)thio)-N-(2,5-dimethoxyphenyl)acetamide], the results for the “Inhibition Zone” value in the experiment on E. coli AB-274 (E. coli) and with B. subtilis QB-928 were 12 ± 0.65 mm and 11 ± 0.50 mm, respectively. Also, the zone of inhibition at 25 µg/disc in the experiment on E. coli AB-274 (setting [2]) worked out at 12 mm; in the experiment on B. subtilis QB-928 (Bacillus subtilis), 11 mm. In addition, the MIC in the experiment with E. coli AB-274 (setting [3]) amounted to 16 ± 1 µg/mL (≈ 25.2 µM); with B. subtilis QB-928 (setting [4]) it was 9.25 ± 1.25 µg/mL (≈ 14.6 µM). Besides, in experiment [1], 500 µM produced 81.45 ± 0.5% inhibition. Also, it took 550 ± 1000 nM to reach half-maximal inhibition in experiment [1] (IC50).

Turning to `O=C(CSc1nnc(-c2cc3cc(Br)ccc3o2)n1-c1ccc(Cl)c(Cl)c1)Nc1ccc(Cl)c(Cl)c1` [Compound 10e, 2-((5-(5-Bromobenzofuran-2-yl)-4-(3,4-dichlorophenyl)-4H-1,2,4-triazol-3-yl)thio)-N-(3,4-dichlorophenyl)acetamide], the “Inhibition Zone” value in the experiment with E. coli AB-274 (E. coli) turned out to be 24 ± 0.50 mm; in the experiment on B. subtilis QB-928 it was 8 ± 0.75 mm. Besides, the figures for the zone of inhibition at 25 µg/disc in the experiment with E. coli AB-274 (setting [2]) and with B. subtilis QB-928 (Bacillus subtilis) were 24 mm and 8 mm, respectively. For the same molecule, the MIC in the experiment with E. coli AB-274 (setting [3]) was found to be 2.5 ± 1.4 µg/mL (≈ 3.89 µM); in the experiment on B. subtilis QB-928 (setting [4]), 14 ± 1.8 µg/mL (≈ 21.8 µM). The same molecule had an inhibition at 500 µM in experiment [1] of 51.2 ± 1.24%. The half-inhibitory concentration (IC50) in experiment [1] was determined as 1980 ± 250 nM.

For penicillin [reference compound], the MIC in the experiment with E. coli AB-274 (E. coli) came out at 2.4 ± 1.00 µg/mL; in the experiment on B. subtilis QB-928 it was 1 ± 1.50 µg/mL; in the experiment with B. subtilis QB-928 (listed as penicillin), 1 µg/mL. Besides, the figures for the “Inhibition Zone” value with E. coli AB-274 (E. coli), with B. subtilis QB-928 and with B. subtilis QB-928 (listed as penicillin) were 24 ± 0.50 mm, 18 ± 0.50 mm and 18 mm, respectively.
